Laboratory results reported in patent US4473573A, “N-(2-methoxyethyl)-noroxymorphone and pharmaceutical compositions for relieving pain containing same” (Boehringer Ingelheim KG, priority 1982, dated 1984).
Structures can show the parent of a compound that is named as a salt. Where two headings read alike, the source gives them in different places.

How the values were obtained:
[1] = activity compared with the compound of Formula I (test not named); conditions: for effect of etherification of the phenolic hydroxy group on activity: compared with Formula I; for activity relative to the compound of Formula I: compound of Formula I = 1
mice [2] = conditions: ascribed; opioid kappa agonist of the benzomorphane series; cited from earlier work
[3] = system: morphine-dependent monkeys; assay: withdrawal test in morphine-dependent monkeys; assay type: in vivo
From the text: (§1) The non-morphine-like activity profile can be recognized from the absence of typical side effects produced by opiates.
In morphine-dependent monkeys there is found to be increased sensitivity of morphine antagonists which trigger withdrawal symptoms, dependent upon dosage.

[4] = Straub morphine tail phenomenon / compulsive circular motion (typical opiate side effects); assay type: in vivo; conditions: hydrochloride
From the text: as §1

[5] = system: analgesia produced by morphine; assay: Haffner test, reversal of the analgesia produced by morphine; assay type: in vivo; conditions: s. c.; for ED50: sc, read-out: AD50, Haffner test
mice [6] = assay: therapeutic range based upon the effect in the writhing test; assay type: in vivo; conditions: LD50 s. c. based upon the effect in the writhing test
From the text: (§2) The comparison values are 1600 for the standard analgesic morphine and 169 for the agonist-antagonist pentazocine which is used therapeutically as an analgesic.

[7] = writhing test (analgesic property); assay type: in vivo; conditions: s. c.; for ED50: sc
mice [8] = assay: inhibition of locomotion (sedation); assay type: in vivo; conditions: up to 100 mg/kg for Formula I, comparison substances in or near the therapeutic dosage range
From the text: Another advantage of the compound of Formula I over newer substances, not yet used therapeutically, selected from the opioid kappa agonists of the benzomorphane series, to which a high therapeutic range is also ascribed (for example, 1800 for ethylketazocine), is the absence of any strong sedation. This can be recognized in the comparison substances as an inhibition of locomotion in mice in or near the therapeutic dosage range. In the compound of Formula I, however, this effect was not observed in the range tested up to very high doses of 100 mg/kg.

acute toxicity (LD50) = conditions: mouse, in vivo, sc; s. c., mice
From the text: as §2

[9] = cited from earlier work

SMILES: CCOCCN1CC[C@]23c4c5ccc(OC)c4O[C@H]2C(=O)CC[C@@]3(O)[C@H]1C5 [Formula IIIc]
- effect of etherification of the phenolic hydroxy group on activity [1]: reduces the activity

SMILES: CC[C@]12CCN(CC3CC3)[C@H](C(=O)c3ccc(O)cc31)[C@@H]2C [ethylketazocine]
- therapeutic range (mice [2]): 1800

SMILES: COCCN1CC[C@]23c4c5ccc(O)c4O[C@H]2C(=O)CC[C@@]3(O)[C@H]1C5 [N-(2-methoxyethyl)-noroxymorphone hydrochloride]
- relieving the withdrawal symptoms in morphine-dependent monkeys ([3]; after morphine has been withdrawn, hydrochloride): not capable of relieving the withdrawal symptoms
- effect on withdrawal symptoms (antagonist behaviour) ([3]; morphine-dependent monkeys, hydrochloride): aggravates the withdrawal symptoms
- Straub morphine tail phenomenon [4]: does not show
- compulsive circular motion [4]: does not show

SMILES: C=CCN1CC[C@]23c4c5ccc(O)c4O[C@H]2C(=O)CC[C@@]3(O)[C@H]1C5 [naloxone, reference compound]
- ED50 [5]: 0.03 mg/kg

SMILES: CC(C)=CCN1CCC2(C)c3cc(O)ccc3CC1C2C (centres unmarked) [pentazocine]
- therapeutic range (mice [6]): 169

SMILES: COCCN1CC[C@]23c4c5ccc(OC)c4O[C@H]2C(=O)CC[C@@]3(O)[C@H]1C5 [Formula IIIb]
- effect of etherification of the phenolic hydroxy group on activity [1]: reduces the activity
- activity relative to the compound of Formula I [1]: 1/84

SMILES: CCOCCN1CC[C@]23c4c5ccc(O)c4O[C@H]2C(=O)CC[C@@]3(O)[C@H]1C5 [Formula IIIa]
- activity relative to the compound of Formula I [1]: 1/20

SMILES: COCCN1CC[C@]23c4c5ccc(O)c4O[C@H]2C(=O)CC[C@@]3(O)[C@H]1C5 [Formula I, N-(2-methoxyethyl)-noroxymorphone]
- times stronger than morphine, writhing test ([7]; relative to morphine): about 36 times
- times stronger than oxymorphone, writhing test ([7]; relative to oxymorphone): about 2.5 times
- ED50 [7]: 0.013 mg/kg
- antagonist strength compared with naloxone ([3]; morphine-dependent monkeys, triggering of withdrawal symptoms): as strong as naloxone
- inhibition of locomotion (strong sedation) (mice [8]): not observed
- antagonistic activity relative to naloxone ([5]; Haffner test, naloxone = 1): about 1/10
- ED50 [5]: 0.3 mg/kg
- LD50 (acute toxicity (LD50)): 1350 mg/kg
- therapeutic range (mice [6]): 103,846

SMILES: O=C1CC[C@@]2(O)[C@H]3Cc4ccc(O)c5c4[C@@]2(CCN3CC2CC2)[C@H]1O5 [naltrexone]
- antagonist character ([9]; in vivo): pure antagonists
- analgesic activity ([9]; pure antagonists): no analgesic activity

SMILES: COCCCN1CC[C@]23c4c5ccc(O)c4O[C@H]2C(=O)CC[C@@]3(O)[C@H]1C5 [Formula IIId]
- activity relative to the compound of Formula I [1]: 1/25

SMILES: CN1CC[C@]23c4c5ccc(O)c4O[C@H]2[C@@H](O)C=C[C@H]3[C@H]1C5 [morphine, reference compound]
- ED50, writhing test [7]: 0.47 mg/kg
- therapeutic range (mice [6]): 1600

SMILES: CN1CC[C@]23c4c5ccc(O)c4O[C@H]2C(=O)CC[C@@]3(O)[C@H]1C5 [oxymorphone]
- ED50 [7]: 0.032 mg/kg
